# Assay results as given in patent US11661431B2, “Thienopyrrole compounds” (Gilead Sciences, Inc., priority 2021, dated 2023).
# How the values were obtained:
# TLR7 = TLR7 (Homo sapiens (Human), UniProt Q9NYK1); assay: TLR7 human peripheral blood mononuclear cell (PBMC) cell-based assay (GS-986 as agonist; IL-6 and IFNα readout); conditions: human PBMCs, TLR7 agonist GS-986 at 400 nM, 6 hours, antagonist potency; read-out: TLR-7 EC50
# Method: Human peripheral blood mononuclear cells (PBMCs) consist of lymphocytes, monocytes and dendritic cells that express TLR7, TLR8 and TLR9. These cells respond to TLR7, TLR8 and TLR9 ligand stimulation and produce cytokines and chemokines in vitro and in vivo. Human PBMCs are therefore suitable to be used in a cell-based assay to assess the in vitro potency of a TLR 7, 8, and/or 9 antagonist.
# After counting, the cell density was adjusted to 2 million cells/ml and incubated for 1 hour at 37° C., 5% CO2 for recovery. Following the recovery, the cells were plated by adding 50 μl per well (100,000 cells) to 384-well cell culture plates (Greiner) containing 250 nl of test antagonists in 100% DMSO per well, in a 10 points dose response in quadruplicates. PBMCs were incubated in the presence of test antagonists for one hour at 37° C., 5% CO2 before being stimulated with a TLR7 or TLR9agonist. […] PBMCs were incubated in the presence of the test antagonist and the TLR7 (or TLR9) agonist for an additional 6 hours at 37° C., 5% CO2. At the end of the incubation, the cell culture plates were centrifuged at 500 g for 5 min, and the cell culture supernatant was collected. The level of cytokines (IL-6 and IFNα) in the supernatant was measured by electrochemiluminescence immunoassays (Mesoscale Discovery) following manufacturer's recommended protocols.
# TLR8 = TLR8 (Homo sapiens (Human), UniProt Q9NR97); assay: TLR8 human peripheral blood mononuclear cell (PBMC) cell-based assay (Compound A as agonist; TNFα and IL12p40 readout); conditions: human PBMCs, TLR8 agonist Compound A at 800 nM, 6 hours, antagonist potency; read-out: TLR-8 EC50
# Method: After counting, the cell density was adjusted to 2 million cells/ml and incubated for 1 hour at 37° C., 5% CO2 for recovery. Following the recovery, the cells were plated by adding 50 μl per well (100,000 cells) to 384-well cell culture plates (Greiner) containing 250 nl of test antagonists in 100% DMSO per well, in a 10 points dose response in quadruplicates. PBMCs were incubated in the presence of antagonists for one hour at 37° C., 5% CO2 before being stimulated with TLR8 agonist. […] PBMCs were incubated in the presence of antagonist and the TLR8 agonist for an additional 6 hours at 37° C., 5% CO2. At the end of the incubation, the cell culture plates were centrifuged at 500 g for 5 min, and the cell culture supernatant was collected. The level of cytokines (TNFα and IL12p40) in the supernatant was measured by electrochemiluminescence immunoassays (Mesoscale Discovery) following manufacturer's recommended protocols.
# Sequence of TLR8 (Q9NR97 27-1041): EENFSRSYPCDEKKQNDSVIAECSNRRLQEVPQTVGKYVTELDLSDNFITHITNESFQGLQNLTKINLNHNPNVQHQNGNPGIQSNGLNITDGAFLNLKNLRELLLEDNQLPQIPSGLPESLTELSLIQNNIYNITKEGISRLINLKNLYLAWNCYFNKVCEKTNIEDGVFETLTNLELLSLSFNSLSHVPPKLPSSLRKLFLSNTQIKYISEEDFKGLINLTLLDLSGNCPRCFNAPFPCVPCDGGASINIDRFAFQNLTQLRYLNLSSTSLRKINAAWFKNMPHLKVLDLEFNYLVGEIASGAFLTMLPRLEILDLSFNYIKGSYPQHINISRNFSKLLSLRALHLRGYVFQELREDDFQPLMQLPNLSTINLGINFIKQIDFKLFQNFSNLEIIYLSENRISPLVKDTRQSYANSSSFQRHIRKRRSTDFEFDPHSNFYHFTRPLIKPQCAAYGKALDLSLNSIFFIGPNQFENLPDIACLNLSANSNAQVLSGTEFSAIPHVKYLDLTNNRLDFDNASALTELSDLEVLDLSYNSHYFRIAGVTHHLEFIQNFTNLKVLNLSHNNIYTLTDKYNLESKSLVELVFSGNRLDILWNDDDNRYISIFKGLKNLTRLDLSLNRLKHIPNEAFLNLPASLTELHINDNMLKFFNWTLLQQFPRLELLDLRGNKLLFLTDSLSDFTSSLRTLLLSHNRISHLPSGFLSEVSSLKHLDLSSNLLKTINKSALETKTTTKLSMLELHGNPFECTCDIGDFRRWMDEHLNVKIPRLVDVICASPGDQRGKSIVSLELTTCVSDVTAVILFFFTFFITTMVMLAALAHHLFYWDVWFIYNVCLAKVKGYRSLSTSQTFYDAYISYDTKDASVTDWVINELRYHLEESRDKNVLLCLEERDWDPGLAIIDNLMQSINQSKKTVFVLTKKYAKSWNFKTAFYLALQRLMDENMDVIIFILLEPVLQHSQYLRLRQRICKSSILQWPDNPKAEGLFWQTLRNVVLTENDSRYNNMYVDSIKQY
# Sequence of TLR7 (Q9NYK1 27-1049): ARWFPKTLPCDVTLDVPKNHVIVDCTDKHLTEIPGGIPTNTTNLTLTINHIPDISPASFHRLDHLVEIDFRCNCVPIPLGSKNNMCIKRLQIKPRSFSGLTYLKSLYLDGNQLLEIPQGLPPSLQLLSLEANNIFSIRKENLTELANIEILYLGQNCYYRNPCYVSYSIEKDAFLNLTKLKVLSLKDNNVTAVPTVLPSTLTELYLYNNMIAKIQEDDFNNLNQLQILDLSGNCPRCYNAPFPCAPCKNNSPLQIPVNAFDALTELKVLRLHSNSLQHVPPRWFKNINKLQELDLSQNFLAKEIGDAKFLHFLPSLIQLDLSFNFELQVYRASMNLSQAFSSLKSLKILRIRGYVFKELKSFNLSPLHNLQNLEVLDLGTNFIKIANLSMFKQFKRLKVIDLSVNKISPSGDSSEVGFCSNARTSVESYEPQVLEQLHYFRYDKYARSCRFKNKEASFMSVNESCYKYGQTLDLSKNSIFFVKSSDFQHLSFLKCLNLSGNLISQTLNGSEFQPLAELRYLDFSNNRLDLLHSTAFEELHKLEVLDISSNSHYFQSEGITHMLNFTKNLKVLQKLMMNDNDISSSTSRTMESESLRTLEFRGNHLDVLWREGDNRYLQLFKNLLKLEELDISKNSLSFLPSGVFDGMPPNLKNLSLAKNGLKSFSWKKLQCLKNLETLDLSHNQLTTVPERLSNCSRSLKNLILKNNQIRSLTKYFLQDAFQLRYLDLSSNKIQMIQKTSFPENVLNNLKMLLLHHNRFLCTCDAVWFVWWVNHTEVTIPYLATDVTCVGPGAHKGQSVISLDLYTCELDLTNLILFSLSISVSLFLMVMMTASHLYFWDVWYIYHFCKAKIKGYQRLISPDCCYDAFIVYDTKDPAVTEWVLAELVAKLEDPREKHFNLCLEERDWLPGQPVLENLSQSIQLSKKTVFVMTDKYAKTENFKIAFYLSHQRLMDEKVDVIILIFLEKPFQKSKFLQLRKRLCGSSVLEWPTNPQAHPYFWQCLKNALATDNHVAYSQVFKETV
Compound,EC50 (TLR7),EC50 (TLR8)
"Cc1c(C2CCN(CCO)CC2)sc2[nH]c(-c3cc(C)c4ncnn4c3)c(C(C)C)c12 [Example 13, 2-(4-(4-isopropyl-3-methyl-5-(8-methyl-[1,2,4]triazolo[1,5-a]pyridin-6-yl)-6H-thieno[2,3-b]pyrrol-2-yl)piperidin-1-yl)ethan-1-ol]",1.27 nM,7.11 nM
Cc1c(C2CCN(C(=O)[C@@H]3CCCN3)CC2)sc2[nH]c(-c3cc(C)c4ncnn4c3)c(C(C)C)c12 [Example 14],0.21 nM,13.8 nM
Cc1c(C2CCN(C(=O)[C@H]3CCCN3)CC2)sc2[nH]c(-c3cc(C)c4ncnn4c3)c(C(C)C)c12 [Example 15],0.12 nM,13.4 nM
Cc1c(C2CCN(C(=O)C3CNC3)CC2)sc2[nH]c(-c3cc(C)c4ncnn4c3)c(C(C)C)c12 [Example 16],1.63 nM,46.1 nM
Cc1c(C2CCN(C(=O)[C@H]3CCCN3C)CC2)sc2[nH]c(-c3cc(C)c4ncnn4c3)c(C(C)C)c12 [Example 18],0.05 nM,10.9 nM
Cc1c(C2CCN(C(=O)[C@@H]3CCCN3C)CC2)sc2[nH]c(-c3cc(C)c4ncnn4c3)c(C(C)C)c12 [Example 19],0.43 nM,7.76 nM
"Cc1c(-c2ccc(N3CCNCC3)nc2)sc2[nH]c(-c3cc(C)c4ncnn4c3)c(C(C)C)c12 [Example 20, 4-isopropyl-3-methyl-5-(8-methyl-[1,2,4]triazolo[1,5-a]pyridin-6-yl)-2-(6-(piperazin-1-yl)pyridin-3-yl)-6H-thieno[2,3-b]pyrrole]",0.28 nM,12 nM
Cc1c(-c2cnc3c(c2)CNCC3)sc2[nH]c(-c3cc(C)c4ncnn4c3)c(C(C)C)c12 [Example 21],1.08 nM,1.25 nM
Cc1c(-c2ccc3[nH]c([C@H]4N[C@@H]5CC[C@H]4C5)nc3c2)sc2[nH]c(-c3cc(C)c4ncnn4c3)c(C(C)C)c12 [Example 22],1.27 nM,26.1 nM
Cc1c(-c2ccc(N3CCNCC3)cc2)sc2[nH]c(-c3cc(C)c4ncnn4c3)c(C(C)C)c12 [Example 23],0.56 nM,16.1 nM
Cc1c(C2CCC3(CC2)CNC3)sc2[nH]c(-c3cc(C)c4ncnn4c3)c(C(C)C)c12 [Example 24],0.29 nM,8.98 nM
Cc1c(C2CCC3(CC2)CN(CC(N)=O)C3)sc2[nH]c(-c3cc(C)c4ncnn4c3)c(C(C)C)c12 [Example 25],0.11 nM,2.95 nM
Cc1cc(-c2[nH]c3sc(C4CCN(CC(N)=O)CC4)cc3c2C(C)C)cn2ncnc12 [Example 26],0.68 nM,1.61 nM
Cc1c(C2CCN(C(C)C(N)=O)CC2)sc2[nH]c(-c3cc(C)c4ncnn4c3)c(C(C)C)c12 (centres unmarked) [Example 27],0.25 nM,8.43 nM
CNC(=O)CN1CCC(c2sc3[nH]c(-c4cc(C)c5ncnn5c4)c(C(C)C)c3c2C)CC1 [Example 28],1.06 nM,19.7 nM
Cc1c(C2CC3(C2)CN(CC(N)=O)C3)sc2[nH]c(-c3cc(C)c4ncnn4c3)c(C(C)C)c12 [Example 29],0.94 nM,0.21 nM
Cc1c(C2CC3COCC(C2)N3CC(N)=O)sc2[nH]c(-c3cc(C)c4ncnn4c3)c(C(C)C)c12 (centres unmarked) [Example 30],3.42 nM,257 nM
Cc1c(-c2[nH]c3sc(C4CC5(C4)CN(CC(N)=O)C5)c(C)c3c2C(C)C)cn2ncnc2c1C [Example 31],3.15 nM,0.05 nM
Cc1c(C2CCN(C(=O)N3CCNCC3)CC2)sc2[nH]c(-c3cc(C)c4ncnn4c3)c(C(C)C)c12 [Example 32],0.05 nM,8.32 nM
Cc1c(C2CC3COCC(C2)N3CCO)sc2[nH]c(-c3cc(C)c4ncnn4c3)c(C(C)C)c12 (centres unmarked) [Example 33],7.19 nM,45.9 nM
Cc1c(C2CCN(C(=O)CN3CCCC3)CC2)sc2[nH]c(-c3cc(C)c4ncnn4c3)c(C(C)C)c12 [Example 34],0.06 nM,4.45 nM
Cc1c(C2CCN(C(=O)[C@H]3COCCN3)CC2)sc2[nH]c(-c3cc(C)c4ncnn4c3)c(C(C)C)c12 [Example 35],0.1 nM,13 nM
